This is an account of results in ChEMBL document CHEMBL3046323, “Photosynthetic Electron Transport Inhibitory and Herbicidal Activities of 2-(N-Acylbenzylamino)-4-methyl-6-fluoroalkyl-1, 3, 5-triazine Derivatives” (J Pestic Sci, 2001).

SMILES strings stand for the structures.

For assay [1], the system named is Chenopodium album. In words: Herbicidal activity against Chenopodium album at 4 kg/ha treated as soil application at pre-emergence after 3 weeks. The format is functional.
For the next assay, the system named is Pontederia vaginalis. In words: Herbicidal activity against Monochoria vaginalis at 4 kg/ha treated as foliar application at post-emergence after 3 weeks. The class given is functional.
In assay [2] the test system is Schoenoplectiella juncoides. Briefly: Herbicidal activity against Schoenoplectiella juncoides var. Hotarui Ohwi at 4 kg/ha treated as foliar application at post-emergence after 3 weeks. The format is functional.
The subject of assay [3] is Echinochloa crus-galli var. crus-galli. In words: Herbicidal activity against Echinochloa crus-galli var. crus-galli at 4 kg/ha treated as paddy application at pre-emergence after 3 weeks. The format is functional.
The test system of assay [4] is Chenopodium album. Briefly: Herbicidal activity against Chenopodium album at 4 kg/ha treated as paddy application at pre-emergence after 3 weeks. The format is functional.
The test system of assay [5] is Echinochloa crus-galli var. crus-galli. Briefly: Herbicidal activity against Echinochloa crus-galli var. crus-galli at 4 kg/ha treated as soil application at pre-emergence after 3 weeks. The format is functional.
Assay [6] concerns Persicaria longiseta. Briefly: Herbicidal activity against Persicaria longiseta at 4 kg/ha treated as soil application at pre-emergence after 3 weeks. The class given is functional.
The subject of another assay is Echinochloa oryzicola. Briefly: Herbicidal activity against Echinochloa oryzicola at 4 kg/ha treated as foliar application at post-emergence after 3 weeks. The class given is functional.
The test system of assay [7] is Digitaria ciliaris. In words: Herbicidal activity against Digitaria ciliaris at 4 kg/ha treated as soil application at pre-emergence after 3 weeks. The format is functional.
Assay [8] deals with Amaranthus blitum subsp. oleraceus. Briefly: Herbicidal activity against Amaranthus blitum subsp. Oleraceus at 4 kg/ha treated as soil application at pre-emergence after 3 weeks. The class given is functional.
The subject of assay [9] is Digitaria ciliaris. In words: Herbicidal activity against Digitaria ciliaris at 4 kg/ha treated as paddy application at pre-emergence after 3 weeks. The class given is functional.
The test system of assay [10] is Persicaria longiseta. In words: Herbicidal activity against Persicaria longiseta at 4 kg/ha treated as paddy application at pre-emergence after 3 weeks. The format is functional.
The next assay has as its system Rotala indica. In words: Herbicidal activity against Rotala indica at 4 kg/ha treated as foliar application at post-emergence after 3 weeks. The format is functional.
Assay [11] can be described thus: Inhibition of photosynthetic electron transport in Spinacia oleracea leaf thylakoids assessed as oxygen formation.

Take `CCC(=O)N(Cc1ccccc1)c1nc(C)nc(C(F)(F)F)n1`: the Activity in the assay on Chenopodium album [1] was found to be 91%; in the assay with Pontederia vaginalis, 26%; in [2] it was 0%; in [3], 76%; in the assay with Chenopodium album [4], 100%; in [5] it was 76%. The Activity is listed as 91% in the assay with Persicaria longiseta [6]; 0% with Echinochloa oryzicola; 91% in the assay on Digitaria ciliaris [7]; 91% in assay [8]; 76% in the assay on Digitaria ciliaris [9]; 100% in the assay on Persicaria longiseta [10].

Turning to `Cc1nc(NCc2ccc(Cl)cc2)nc(C(F)(F)F)n1`, the Activity in the assay with Rotala indica was 91%; in the assay with Chenopodium album [1] it was 100%; with Pontederia vaginalis it was 100%; in assay [2], 100%; in [3], 100%; in the assay with Chenopodium album [4] it was 91%. Besides, the Activity is given as 100% in [5]; 91% in the assay on Echinochloa oryzicola; 100% in the assay with Digitaria ciliaris [7]; 100% with Digitaria ciliaris [9]; 91% in the assay on Persicaria longiseta [10]. Besides, in [11], the pI50 came to 6.97.

`Cc1nc(NCc2ccccc2)nc(C(F)(F)F)n1`: the Activity in the assay on Rotala indica is reported as 76%; in the assay with Chenopodium album [1], 100%; in the assay with Pontederia vaginalis, 91%; in assay [2], 91%; in [3], 100%; with Chenopodium album [4] it was 76%. The Activity worked out at 76% in [5]; 76% in the assay with Echinochloa oryzicola; 91% in the assay on Digitaria ciliaris [7]; 91% in the assay with Digitaria ciliaris [9]; 76% with Persicaria longiseta [10].

On to `Cc1nc(NCc2ccc(Cl)cc2)nc(C(F)F)n1`, for which the pI50 in assay [11] came to 6.62.

Regarding `CCCc1nc(C)nc(N(C=O)Cc2ccc(Cl)cc2)n1`, the Activity was determined as 100% in the assay on Rotala indica; 91% in the assay on Chenopodium album [1]; 76% in the assay on Pontederia vaginalis; 1% in [2]; 100% in [3]; 100% in the assay with Chenopodium album [4]. In addition, the Activity in assay [5] was 51%; in the assay with Persicaria longiseta [6] it was 100%; with Echinochloa oryzicola it was 0%; in the assay on Digitaria ciliaris [7], 91%; in assay [8], 76%; in the assay on Digitaria ciliaris [9], 1%. The molecule further came in with an Activity with Persicaria longiseta [10] of 100%.

Turning to `Cc1nc(N(C=O)Cc2ccccc2)nc(C(F)(F)F)n1`, the Activity in the assay with Chenopodium album [1] worked out at 100%; in the assay with Pontederia vaginalis it was 26%; in assay [2], 0%; in assay [3] it was 76%; with Chenopodium album [4], 100%; in [5] it was 76%. Further, the Activity with Persicaria longiseta [6] turned out to be 91%; with Echinochloa oryzicola, 0%; in the assay on Digitaria ciliaris [7], 76%; in [8], 76%; in the assay on Digitaria ciliaris [9], 76%; in the assay with Persicaria longiseta [10], 100%.

As to `CC(=O)N(Cc1ccccc1)c1nc(C)nc(C(F)(F)F)n1`, the Activity in the assay with Chenopodium album [1] was determined as 100%; in the assay on Pontederia vaginalis, 100%; in [2], 100%; in assay [3] it was 76%; with Chenopodium album [4], 100%; in [5] it was 0%. Also, the Activity is on record as 100% with Echinochloa oryzicola, 1% in the assay with Digitaria ciliaris [7], 0% with Digitaria ciliaris [9] and 51% in the assay on Persicaria longiseta [10].

`CCCC(=O)N(Cc1ccccc1)c1nc(C)nc(C(F)(F)F)n1`: the Activity in the assay on Rotala indica worked out at 26%; in the assay on Chenopodium album [1] it was 76%; with Pontederia vaginalis, 51%; in [2], 0%; in assay [3], 100%; in the assay with Chenopodium album [4], 100%. The Activity in [5] was 51%; with Persicaria longiseta [6], 51%; in the assay with Echinochloa oryzicola, 0%; in the assay with Digitaria ciliaris [7], 51%; in [8] it was 76%; with Digitaria ciliaris [9], 51%. Moreover, in the assay with Persicaria longiseta [10], the Activity was determined as 1%.

Turning to `Cc1nc(N(Cc2ccccc2)C(=O)C(C)(C)C)nc(C(F)(F)F)n1`, the Activity in [5] was 26%; in the assay on Digitaria ciliaris [7] it was 51%.

`Cc1nc(C(F)F)nc(N(C=O)Cc2ccc(Cl)cc2)n1`: the Activity with Rotala indica was 100%; in the assay with Chenopodium album [1], 100%; with Pontederia vaginalis, 100%; in [2], 76%; in [3], 76%; in the assay with Chenopodium album [4] it was 100%. The Activity in assay [5] turned out to be 100%; with Persicaria longiseta [6] it was 100%; with Echinochloa oryzicola it was 91%; in the assay on Digitaria ciliaris [7], 91%; in assay [8], 100%; with Digitaria ciliaris [9] it was 76%. The molecule also came in with an Activity in the assay on Persicaria longiseta [10] of 100%.

Regarding `Cc1nc(N(C=O)Cc2ccc(Cl)cc2)nc(C(F)(F)F)n1`, the Activity is 100% in the assay on Rotala indica; 100% in the assay on Chenopodium album [1]; 100% in the assay on Pontederia vaginalis; 91% in [2]; 100% in assay [3]; 100% in the assay on Chenopodium album [4]. Further, the Activity is listed as 100% in assay [5]; 100% with Persicaria longiseta [6]; 91% in the assay with Echinochloa oryzicola; 91% with Digitaria ciliaris [7]; 91% in [8]; 91% in the assay on Digitaria ciliaris [9]. In the assay on Persicaria longiseta [10], the Activity is on record as 100%.

As for `Cc1nc(N(C=O)Cc2ccc(Cl)cc2)nc(C(F)(F)C(F)(F)F)n1`, the Activity with Rotala indica is 100%; in the assay on Chenopodium album [1], 91%; in the assay with Pontederia vaginalis, 100%; in [2], 100%; in assay [3], 100%; with Chenopodium album [4], 100%. The Activity in [5] came to 100%; in the assay on Persicaria longiseta [6], 100%; in the assay with Echinochloa oryzicola, 76%; with Digitaria ciliaris [7], 100%; in assay [8], 100%; in the assay with Digitaria ciliaris [9], 76%. For the same molecule, in the assay on Persicaria longiseta [10], the Activity worked out at 100%.

With `CCNc1nc(Cl)nc(NC(C)C)n1` [ATRAZINE], the Activity in the assay on Pontederia vaginalis worked out at 100%; in assay [2], 76%; with Chenopodium album [4], 91%; in the assay on Echinochloa oryzicola, 91%; in the assay on Persicaria longiseta [10], 91%.

Turning to `CCNc1nc(Cl)nc(NCC)n1` [SIMAZINE], the Activity in the assay with Chenopodium album [1] is 91%; in assay [5] it was 26%; with Digitaria ciliaris [7], 51%; in [8], 91%. Further, in assay [11], the pI50 was 6.28.
